In PubChem BioAssay (NCI):
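48-hour exposure; five concentrations; linearly interpolated endpoints. GI50 marks 50% less growth. TGI marks complete inhibition of growth.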

How the values were obtained:
Assay in all cases: NCI tumour cell line growth inhibition, 48 h
[1] = system: SNB-19 CNS
[2] = system: SK-MEL-28 melanoma
[3] = system: DMS 114 small cell lung
[4] = system: NCI-H522 lung
[5] = system: UACC-257 melanoma
[6] = system: LXFL 529 NSCLC
[7] = system: UACC-62 melanoma
[8] = system: TK-10 renal
[9] = system: OVCAR-5 ovarian
[10] = system: SF-268 CNS
[11] = system: U251 CNS
[12] = system: HCT-15 colon
[13] = system: CAKI-1 renal
[14] = system: LOX IMVI melanoma
[15] = system: HOP-62 NSCLC
[16] = system: HL-60(TB) leukemia
[17] = system: HT29 colon
[18] = system: RPMI-8226 leukemia
[19] = system: HCC-2998 colon
[20] = system: SN12C renal
[21] = system: M19-MEL melanoma
[22] = system: K-562 leukemia
[23] = system: A549 NSCLC
[24] = system: OVCAR-8 ovarian
[25] = system: CCRF-CEM leukemia
[26] = system: SK-OV-3 ovarian
[27] = system: SK-MEL-5 melanoma
[28] = system: SF-295 CNS
[29] = system: SK-MEL-2 melanoma
[30] = system: SNB-75 CNS
[31] = system: NCI-H460 lung
[32] = system: NCI-H23 lung
[33] = system: KM20L2 colon
[34] = system: OVCAR-4 ovarian
[35] = system: 786-0 renal
[36] = system: EKVX NSCLC
[37] = system: UO-31 renal
[38] = system: MOLT-4 leukemia
[39] = system: COLO 205 colon
[40] = system: RXF 393 renal
[41] = system: DLD-1 colon
[42] = system: ACHN renal
[43] = system: M14 melanoma
[44] = system: DMS 273 small cell lung
[45] = system: KM12 colon
[46] = system: SF-539 CNS
[47] = system: SR leukemia
[48] = system: A498 renal
[49] = system: OVCAR-3 ovarian
[50] = system: NCI-H226 lung
[51] = system: T-47D breast
[52] = system: HOP-92 NSCLC
[53] = system: MCF7 breast
[54] = system: IGROV1 ovarian
[55] = system: DU-145 prostate
[56] = system: MALME-3M melanoma
[57] = system: PC-3 prostate
[58] = system: MDA-N
[59] = system: MDA-MB-435
[60] = system: MDA-MB-231 breast
[61] = system: SW-620 colon
[62] = system: HS 578T breast
[63] = system: NCI/ADR-RES ovarian
[64] = system: BT-549 breast
[65] = system: HCT-116 colon
[66] = system: SNB-78 CNS

`Cc1cc(NCCCCCCCCNc2cc(C)nc3cc(N)ccc23)c2ccc(N)cc2n1` gave a TGI [1] of 45.4 µM, a TGI [2] of 48.3 µM and a TGI [3] of 30.8 µM. It also gave a TGI [4] of 30.8 µM, a TGI [5] of 35.5 µM and a TGI [6] of 45.2 µM. It also gave a TGI [7] of 38.4 µM, a TGI [8] greater than 100 µM and a TGI [9] greater than 100 µM. For the same compound, the TGI [10] was greater than 100 µM, the TGI [11] was 24.3 µM and the TGI [12] was greater than 100 µM. The TGI [13] was greater than 100 µM, the TGI [14] was 40.1 µM and the TGI [15] was 75.1 µM. The TGI [16] was 4.88 µM, the TGI [17] was 75 µM and the TGI [18] was greater than 100 µM. For the same compound, the TGI [19] was 38.8 µM, the TGI [20] was greater than 100 µM and the TGI [21] was 45.3 µM. The TGI [22] was 16.3 µM, the TGI [23] was greater than 100 µM and the TGI [24] was 52.1 µM. The TGI [25] was 30.8 µM, the TGI [26] was greater than 100 µM and the TGI [27] was 34.8 µM. For the same compound, the TGI [28] was 42 µM, the TGI [29] was 40.4 µM and the TGI [30] was 69.1 µM. It also gave a TGI [31] of 49.5 µM, a TGI [32] of 52.8 µM and a TGI [33] of 48.8 µM. For the same compound, the TGI [34] was greater than 100 µM, the TGI [35] was 53.7 µM and the TGI [36] was 61 µM. It also gave a TGI [37] greater than 100 µM, a TGI [38] greater than 100 µM and a TGI [39] of 31.2 µM. The TGI [40] was greater than 100 µM, the TGI [41] was greater than 100 µM and the TGI [42] was greater than 100 µM. The TGI [43] was 35.6 µM, the TGI [44] was 28.9 µM and the TGI [45] was 37.8 µM. It also gave a TGI [46] of 41.2 µM, a TGI [47] greater than 100 µM and a TGI [48] greater than 100 µM. It also gave a TGI [49] of 37.4 µM and a TGI [50] of 93.3 µM.
Work on `N=C1OC(CN2CCN(c3ccccc3)CC2)CN1C(=S)Nc1ccccc1` (configuration not stated) yielded a TGI [1] greater than 100 µM, a TGI [2] greater than 100 µM and a TGI [4] greater than 100 µM. For the same compound, the TGI [5] was greater than 100 µM, the TGI [51] was greater than 100 µM and the TGI [7] was greater than 100 µM. For the same compound, the TGI [8] was greater than 100 µM, the TGI [9] was greater than 100 µM and the TGI [10] was greater than 100 µM. The TGI [11] was greater than 100 µM, the TGI [12] was greater than 100 µM and the TGI [52] was greater than 100 µM. For the same compound, the TGI [13] was greater than 100 µM, the TGI [14] was 72.7 µM and the TGI [15] was greater than 100 µM. It also gave a TGI [16] greater than 100 µM, a TGI [17] greater than 100 µM and a TGI [18] greater than 100 µM. It also gave a TGI [19] greater than 100 µM, a TGI [20] greater than 100 µM and a TGI [53] greater than 100 µM. It also gave a TGI [54] greater than 100 µM, a TGI [22] greater than 100 µM and a TGI [23] greater than 100 µM. It also gave a TGI [24] greater than 100 µM, a TGI [25] greater than 100 µM and a TGI [55] greater than 100 µM. For the same compound, the TGI [56] was greater than 100 µM, the TGI [57] was greater than 100 µM and the TGI [26] was greater than 100 µM. For the same compound, the TGI [27] was greater than 100 µM, the TGI [28] was greater than 100 µM and the TGI [58] was greater than 100 µM. For the same compound, the TGI [29] was greater than 100 µM, the TGI [30] was greater than 100 µM and the TGI [31] was greater than 100 µM. For the same compound, the TGI [32] was greater than 100 µM, the TGI [59] was greater than 100 µM and the TGI [34] was greater than 100 µM. For the same compound, the TGI [60] was greater than 100 µM, the TGI [35] was greater than 100 µM and the TGI [36] was greater than 100 µM. It also gave a TGI [37] greater than 100 µM, a TGI [61] greater than 100 µM and a TGI [38] greater than 100 µM. The TGI [39] was greater than 100 µM, the TGI [40] was greater than 100 µM and the TGI [62] was greater than 100 µM. The TGI [63] was greater than 100 µM, the TGI [42] was greater than 100 µM and the TGI [43] was greater than 100 µM. It also gave a TGI [45] greater than 100 µM, a TGI [46] greater than 100 µM and a TGI [47] greater than 100 µM. For the same compound, the TGI [64] was greater than 100 µM, the TGI [65] was greater than 100 µM and the TGI [48] was greater than 100 µM. It also gave a TGI [49] greater than 100 µM and a TGI [50] greater than 100 µM.
`N.N.N.N.N.[Co+3].[I-].[N-]=[N+]=[N-]` showed a GI50 [1] greater than 100 µM, a TGI [1] greater than 100 µM and a GI50 [2] greater than 100 µM. For the same compound, the TGI [2] was greater than 100 µM, the GI50 [4] was greater than 100 µM and the TGI [4] was greater than 100 µM. The GI50 [5] was greater than 100 µM, the TGI [5] was greater than 100 µM and the GI50 [6] was greater than 100 µM. The TGI [6] was greater than 100 µM, the GI50 [7] was 89.7 µM and the TGI [7] was greater than 100 µM. For the same compound, the GI50 [8] was greater than 100 µM, the TGI [8] was greater than 100 µM and the GI50 [9] was greater than 100 µM. For the same compound, the TGI [9] was greater than 100 µM, the GI50 [10] was greater than 100 µM and the TGI [10] was greater than 100 µM. The GI50 [11] was greater than 100 µM, the TGI [11] was greater than 100 µM and the GI50 [12] was greater than 100 µM. It also gave a TGI [12] greater than 100 µM, a GI50 [52] greater than 100 µM and a TGI [52] greater than 100 µM. For the same compound, the GI50 [14] was greater than 100 µM, the TGI [14] was greater than 100 µM and the GI50 [15] was greater than 100 µM. The TGI [15] was greater than 100 µM, the GI50 [17] was greater than 100 µM and the TGI [17] was greater than 100 µM. For the same compound, the GI50 [18] was 35.5 µM, the TGI [18] was greater than 100 µM and the GI50 [19] was greater than 100 µM. The TGI [19] was greater than 100 µM, the GI50 [20] was greater than 100 µM and the TGI [20] was greater than 100 µM. For the same compound, the GI50 [54] was greater than 100 µM, the TGI [54] was greater than 100 µM and the GI50 [22] was greater than 100 µM. For the same compound, the TGI [22] was greater than 100 µM, the GI50 [23] was greater than 100 µM and the TGI [23] was greater than 100 µM. The GI50 [24] was greater than 100 µM, the TGI [24] was greater than 100 µM and the GI50 [25] was greater than 100 µM. For the same compound, the TGI [25] was greater than 100 µM, the GI50 [56] was greater than 100 µM and the TGI [56] was greater than 100 µM. The GI50 [26] was greater than 100 µM, the TGI [26] was greater than 100 µM and the GI50 [27] was greater than 100 µM. The TGI [27] was greater than 100 µM, the GI50 [28] was greater than 100 µM and the TGI [28] was greater than 100 µM. The GI50 [29] was greater than 100 µM, the TGI [29] was greater than 100 µM and the GI50 [30] was 76.9 µM. For the same compound, the TGI [30] was greater than 100 µM, the GI50 [31] was greater than 100 µM and the TGI [31] was greater than 100 µM. The GI50 [32] was greater than 100 µM, the TGI [32] was greater than 100 µM and the GI50 [33] was greater than 100 µM. It also gave a TGI [33] greater than 100 µM, a GI50 [66] greater than 100 µM and a TGI [66] greater than 100 µM. For the same compound, the GI50 [34] was greater than 100 µM, the TGI [34] was greater than 100 µM and the GI50 [35] was greater than 100 µM. It also gave a TGI [35] greater than 100 µM, a GI50 [36] greater than 100 µM and a TGI [36] greater than 100 µM. For the same compound, the GI50 [37] was greater than 100 µM, the TGI [37] was greater than 100 µM and the GI50 [61] was greater than 100 µM. The TGI [61] was greater than 100 µM, the GI50 [38] was 5.41 µM and the TGI [38] was greater than 100 µM. For the same compound, the GI50 [39] was greater than 100 µM, the TGI [39] was greater than 100 µM and the GI50 [41] was greater than 100 µM. It also gave a TGI [41] greater than 100 µM, a GI50 [42] greater than 100 µM and a TGI [42] greater than 100 µM. It also gave a GI50 [43] greater than 100 µM, a TGI [43] greater than 100 µM and a GI50 [44] greater than 100 µM. For the same compound, the TGI [44] was greater than 100 µM, the GI50 [45] was greater than 100 µM and the TGI [45] was greater than 100 µM. The GI50 [46] was greater than 100 µM, the TGI [46] was greater than 100 µM and the GI50 [65] was greater than 100 µM. It also gave a TGI [65] greater than 100 µM, a GI50 [48] greater than 100 µM and a TGI [48] greater than 100 µM. It also gave a GI50 [49] greater than 100 µM and a TGI [49] greater than 100 µM.
